Reference: PubChem BioAssay AID1963446 (Molecular Pharmacology Branch, DTP, NCI, 2024)
Blank lines part the entries; values can stand above or below the molecule they belong to.

System: 993429-296-R-J1-PDC complex spheroid growth, percent test/control
Test: Anticancer human tumor 993429-296-R-J1-PDC patient-derived uterine sarcoma cell line growth inhibition [Asc]
Conditions: for IC50: curve of first compound; for viability, T/C: stronger effect = lower value
Method in brief: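 Complex spheroids combining tumor cells with HUVEC endothelial cells and human MSCs, at 37 degrees C, 5% CO2; agents tested alone or combined, half-log dilutions from at or near clinical Cmax, or 10 microM if Cmax unknown.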

[1] = second compound 0.03 µM, first compound 0.00316 µM
[2] = second compound 0.03 µM, first compound 0.01 µM
[3] = second compound 0.03 µM, first compound 0.0316 µM
[4] = second compound 0.03 µM, first compound 0.1 µM
[5] = second compound 0.0949 µM, first compound 0.00316 µM
[6] = second compound 0.0949 µM, first compound 0.01 µM
[7] = second compound 0.0949 µM, first compound 0.0316 µM
[8] = second compound 0.0949 µM, first compound 0.1 µM
[9] = second compound 0.3 µM, first compound 0.00316 µM
[10] = second compound 0.3 µM, first compound 0.01 µM
[11] = second compound 0.3 µM, first compound 0.0316 µM
[12] = second compound 0.3 µM, first compound 0.1 µM
[13] = second compound 0.949 µM, first compound 0.00316 µM
[14] = second compound 0.949 µM, first compound 0.01 µM
[15] = second compound 0.949 µM, first compound 0.0316 µM
[16] = second compound 0.949 µM, first compound 0.1 µM
[17] = second compound 3 µM, first compound 0.00316 µM
[18] = second compound 3 µM, first compound 0.01 µM
[19] = second compound 3 µM, first compound 0.0316 µM
[20] = second compound 3 µM, first compound 0.1 µM
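Also: spheroids exposed to compounds for seven days.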

- IC50 (second compound 0.03 µM): > 100 nM
- IC50 (second compound 0.0949 µM): > 100 nM
- IC50 (second compound 0.3 µM): > 100 nM
- IC50 (second compound 0.949 µM): > 100 nM
- IC50 (second compound 3 µM): > 100 nM
SMILES: NC1CCC(NC2CC2c2ccccc2)CC1 (stereo not given) + CCN1C(C(=O)NC23CCC(C(=O)O)(CC2)CC3)C(c2cccc(Cl)c2F)C2(C(=O)Nc3cc(Cl)ccc32)C12CCCCC2
- viability, T/C (second compound 0.03 µM, first compound 0.000316 µM): 76.4%
- viability, T/C (second compound 0.03 µM, first compound 0.001 µM): 75.4%
- viability, T/C [1]: 80.2%
- viability, T/C [2]: 77.8%
- viability, T/C [3]: 81.4%
- viability, T/C [4]: 91.8%
- viability, T/C (second compound 0.0949 µM, first compound 0.000316 µM): 91.1%
- viability, T/C (second compound 0.0949 µM, first compound 0.001 µM): 77.5%
- viability, T/C [5]: 74.7%
- viability, T/C [6]: 66.8%
- viability, T/C [7]: 93%
- viability, T/C [8]: 81.5%
- viability, T/C (second compound 0.3 µM, first compound 0.000316 µM): 98.2%
- viability, T/C (second compound 0.3 µM, first compound 0.001 µM): 74.7%
- viability, T/C [9]: 69%
- viability, T/C [10]: 80.2%
- viability, T/C [11]: 69.3%
- viability, T/C [12]: 83.8%
- viability, T/C (second compound 0.949 µM, first compound 0.000316 µM): 72%
- viability, T/C (second compound 0.949 µM, first compound 0.001 µM): 76.9%
- viability, T/C [13]: 83.1%
- viability, T/C [14]: 83.2%
- viability, T/C [15]: 76.6%
- viability, T/C [16]: 88.9%
- viability, T/C (second compound 3 µM, first compound 0.000316 µM): 75.2%
- viability, T/C (second compound 3 µM, first compound 0.001 µM): 85.6%
- viability, T/C [17]: 79.7%
- viability, T/C [18]: 74.1%
- viability, T/C [19]: 70.3%
- viability, T/C [20]: 71%

- IC50 (second compound 0.01 µM): 56.5 nM
- IC50 (second compound 0.0316 µM): 30.9 nM
- IC50 (second compound 0.1 µM): 27.2 nM
- IC50 (second compound 0.316 µM): < 3.16 nM
- IC50 (second compound 1 µM): 11.4 nM
SMILES: O=C(c1ccc(F)c(F)c1Nc1ccc(I)cc1F)N1CC(O)([C@@H]2CCCCN2)C1 + CNC(C)C(=O)NC1CN(S(=O)(=O)c2cccc(S(=O)(=O)N3CCC4CCC(C(=O)NC(c5ccccc5)c5ccccc5)N4C(=O)C(NC(=O)C(C)NC)C3)c2)CCC2CCC(C(=O)NC(c3ccccc3)c3ccccc3)N2C1=O
- viability, T/C (second compound 0.01 µM, first compound 0.00316 µM): 65.5%
- viability, T/C (second compound 0.01 µM, first compound 0.01 µM): 64.5%
- viability, T/C (second compound 0.01 µM, first compound 0.0316 µM): 50.4%
- viability, T/C (second compound 0.01 µM, first compound 0.1 µM): 48.9%
- viability, T/C (second compound 0.01 µM, first compound 0.316 µM): 25.3%
- viability, T/C (second compound 0.01 µM, first compound 1 µM): 1.67%
- viability, T/C (second compound 0.0316 µM, first compound 0.00316 µM): 61.7%
- viability, T/C (second compound 0.0316 µM, first compound 0.01 µM): 51.2%
- viability, T/C (second compound 0.0316 µM, first compound 0.0316 µM): 55.2%
- viability, T/C (second compound 0.0316 µM, first compound 0.1 µM): 33.4%
- viability, T/C (second compound 0.0316 µM, first compound 0.316 µM): 19.1%
- viability, T/C (second compound 0.0316 µM, first compound 1 µM): 1.07%
- viability, T/C (second compound 0.1 µM, first compound 0.00316 µM): 56.4%
- viability, T/C (second compound 0.1 µM, first compound 0.01 µM): 57.5%
- viability, T/C (second compound 0.1 µM, first compound 0.0316 µM): 50.7%
- viability, T/C (second compound 0.1 µM, first compound 0.1 µM): 29.6%
- viability, T/C (second compound 0.1 µM, first compound 0.316 µM): 14.9%
- viability, T/C (second compound 0.1 µM, first compound 1 µM): 1.5%
- viability, T/C (second compound 0.316 µM, first compound 0.00316 µM): 48.3%
- viability, T/C (second compound 0.316 µM, first compound 0.01 µM): 45.4%
- viability, T/C (second compound 0.316 µM, first compound 0.0316 µM): 50.7%
- viability, T/C (second compound 0.316 µM, first compound 0.1 µM): 34.1%
- viability, T/C (second compound 0.316 µM, first compound 0.316 µM): 11%
- viability, T/C (second compound 0.316 µM, first compound 1 µM): 0.99%
- viability, T/C (second compound 1 µM, first compound 0.00316 µM): 54.8%
- viability, T/C (second compound 1 µM, first compound 0.01 µM): 48.4%
- viability, T/C (second compound 1 µM, first compound 0.0316 µM): 43.6%
- viability, T/C (second compound 1 µM, first compound 0.1 µM): 38.5%
- viability, T/C (second compound 1 µM, first compound 0.316 µM): 12.7%
- viability, T/C (second compound 1 µM, first compound 1 µM): 0.99%

- IC50 (second compound 0.03 µM): > 1000 nM
- IC50 (second compound 0.0949 µM): > 1000 nM
- IC50 (second compound 0.3 µM): > 1000 nM
- IC50 (second compound 0.949 µM): > 1000 nM
- IC50 (second compound 3 µM): 287 nM
SMILES: CNC(C)C(=O)NC1CN(S(=O)(=O)c2cccc(S(=O)(=O)N3CCC4CCC(C(=O)NC(c5ccccc5)c5ccccc5)N4C(=O)C(NC(=O)C(C)NC)C3)c2)CCC2CCC(C(=O)NC(c3ccccc3)c3ccccc3)N2C1=O (stereo not given) + CCN1C(C(=O)NC23CCC(C(=O)O)(CC2)CC3)C(c2cccc(Cl)c2F)C2(C(=O)Nc3cc(Cl)ccc32)C12CCCCC2
- viability, T/C [1]: 71.4%
- viability, T/C [2]: 62.7%
- viability, T/C [3]: 57.5%
- viability, T/C [4]: 57%
- viability, T/C (second compound 0.03 µM, first compound 0.316 µM): 58%
- viability, T/C (second compound 0.03 µM, first compound 1 µM): 51.7%
- viability, T/C [5]: 61.2%
- viability, T/C [6]: 69.8%
- viability, T/C [7]: 65%
- viability, T/C [8]: 68.7%
- viability, T/C (second compound 0.0949 µM, first compound 0.316 µM): 53.7%
- viability, T/C (second compound 0.0949 µM, first compound 1 µM): 57.3%
- viability, T/C [9]: 64.9%
- viability, T/C [10]: 79.5%
- viability, T/C [11]: 66.3%
- viability, T/C [12]: 53.9%
- viability, T/C (second compound 0.3 µM, first compound 0.316 µM): 62.6%
- viability, T/C (second compound 0.3 µM, first compound 1 µM): 59.4%
- viability, T/C [13]: 77.3%
- viability, T/C [14]: 64.3%
- viability, T/C [15]: 62.7%
- viability, T/C [16]: 65.2%
- viability, T/C (second compound 0.949 µM, first compound 0.316 µM): 55.9%
- viability, T/C (second compound 0.949 µM, first compound 1 µM): 61.1%
- viability, T/C [17]: 77.9%
- viability, T/C [18]: 66.8%
- viability, T/C [19]: 59.2%
- viability, T/C [20]: 48.3%
- viability, T/C (second compound 3 µM, first compound 0.316 µM): 53.5%
- viability, T/C (second compound 3 µM, first compound 1 µM): 47.7%
